Measurements from PubChem BioAssay (NCI).
Where “and” joins values, the source holds several entries; their conditions need not be identical. Equal entries are not always repeated.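 Interpolation was linear, between the two tested concentrations surrounding the appropriate level; five concentrations were tested over 48 hours in 96-well plates. GI50 is the concentration that inhibits growth by half. TGI: concentration producing complete growth inhibition.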 Where a SMILES comes first, the peptide text is derived from it. [ ]: non-standard residue; d: D form. The star is where a group is joined. ξ: configuration not given here. X3 = COc1ccc(C(N*)c2ccc(OC)cc2)cc1; NMeF = CN[C@@H](Cc1ccccc1)C(=O)O; NMeD = CN[C@@H](CC(=O)O)C(=O)O; NMeV = CN[C@H](C(=O)O)C(C)C; ξNMeV = CNC(C(=O)O)C(C)C; Boc = CC(C)(C)OC(=O)*; ξNMeA = CNC(C)C(=O)O; ξV = CC(C)C(N)C(=O)O

Key:
Test in all cases: growth of human tumour cells (NCI), 48 h
OVCAR-3 ovarian = system: OVCAR-3 ovarian
OVCAR-4 ovarian = system: OVCAR-4 ovarian
IGROV1 ovarian = system: IGROV1 ovarian
HOP-92 NSCLC = system: HOP-92 NSCLC
MCF7 breast = system: MCF7 breast
SK-MEL-2 melanoma = system: SK-MEL-2 melanoma
UO-31 renal = system: UO-31 renal
HCT-116 colon = system: HCT-116 colon
UACC-257 melanoma = system: UACC-257 melanoma
OVCAR-8 ovarian = system: OVCAR-8 ovarian

Structure (SMILES)	TGI (OVCAR-3 ovarian)	TGI (OVCAR-4 ovarian)	TGI (IGROV1 ovarian)	TGI (HOP-92 NSCLC)	TGI (MCF7 breast)	TGI (SK-MEL-2 melanoma)	TGI (UO-31 renal)	TGI (HCT-116 colon)	TGI (UACC-257 melanoma)	TGI (OVCAR-8 ovarian)	GI50 (OVCAR-3 ovarian)	GI50 (OVCAR-4 ovarian)	GI50 (IGROV1 ovarian)	GI50 (HOP-92 NSCLC)	GI50 (MCF7 breast)	GI50 (SK-MEL-2 melanoma)	GI50 (UO-31 renal)	GI50 (HCT-116 colon)	GI50 (UACC-257 melanoma)	GI50 (OVCAR-8 ovarian)
CN(C)CC1CC/C(=C\c2ccc(O)cc2)C1=O (centres undefined)	8.33 µM	18.5 µM	24.1 µM	5.82 µM	4.56 µM	21.1 µM	26.5 µM	4.09 µM	11.3 µM	14.6 µM	–	–	–	–	–	–	–	–	–	–
CN(C)c1cc(NN=C(c2ccc(O)cc2)c2ccc(O)cc2)c([N+](=O)[O-])cc1[N+](=O)[O-]	9.81 µM	28 µM	24.8 µM	25.4 µM	16 µM	22.9 µM	20.5 µM	21.1 µM	27.3 µM	46.5 µM	2.53 µM	5.77 µM	7.16 µM	10.2 µM	3.42 µM	7.45 µM	5.32 µM	5.14 µM	13.4 µM	7.73 µM
Oc1[nH]c2ccccc2c1N=Nc1nc(-c2ccc(Br)cc2)cs1	67.7 µM	38.9 µM	23.1 µM	31.7 µM	> 100 µM	> 100 µM	56.2 µM	> 100 µM	66.1 µM	35.8 µM	–	–	–	–	–	–	–	–	–	–
COc1ccc(C(NC(=O)C[C@@H](C(=O)N(C)C(C)C(=O)O)N(C)C(=O)[C@@H]2CCCN2C(=O)[C@H](C(C)C)N(C)C(=O)C(C(C)C)N(C)C(=O)[C@H](Cc2ccccc2)N(C)C(=O)C(NC(=O)OC(C)(C)C)C(C)C)c2ccc(OC)cc2)cc1 (some centres undefined) (Boc-[ξV][NMeF][ξNMeV][NMeV]P[NMeD](X3)[ξNMeA]-OH)	27.4 µM and 32.9 µM	37.5 µM and 64.5 µM	27.8 µM and 28 µM	23.8 µM and 29.2 µM	37.5 µM	16.8 µM and 28.9 µM	37.5 µM and 31.5 µM	36.2 µM and 34.6 µM	23 µM and 32.2 µM	37.5 µM and 33.7 µM	18.2 µM	24.8 µM	14.7 µM	15.8 µM	–	14.5 µM	17.6 µM	17.3 µM	17.3 µM	19.1 µM
Cc1cc(I)cc(CN(CCCN(C)C)C(C)C)c1O	34.8 µM	> 100 µM	31.7 µM	31.9 µM	36 µM	35.7 µM	32.6 µM	25.1 µM	32.5 µM	> 100 µM	18.8 µM	37.2 µM	15.9 µM	5.77 µM	18.8 µM	18.2 µM	14.5 µM	12.6 µM	16.7 µM	31.6 µM
CCN(Cc1ccc(F)cc1)c1cc(Cl)c(CO)c(Cl)c1	24.3 µM	22.5 µM	17.9 µM	18.1 µM	28 µM	29.5 µM	25.4 µM	18.7 µM	20.4 µM	31.3 µM	11.7 µM	10.7 µM	4.08 µM	3.61 µM	13.7 µM	15 µM	12.2 µM	5.15 µM	6.56 µM	14.3 µM
COc1cccc(C2SC(N)=Nc3c2c(C)nn3C(=O)c2ccccc2O)c1 (centres undefined)	> 7.61 µM	> 8.45 µM	> 10 µM	> 10 µM	> 10 µM	> 10 µM	> 10 µM	> 10 µM	> 10 µM	> 10 µM	–	–	–	–	–	–	–	–	–	–
